Source: paper PMC11511194, “Key Factors for Improving Predictive Accuracy and Avoiding Overparameterization of the PBPK Absorption Model in Food Effect Studies of Weakly Basic Water-Insoluble Compounds in Immediate Release Formulations” (Pharmaceutics, 2024)
In brackets after ≈: the same amount, converted by molar mass. Where two headings read alike, the source gives them in different places.

How the values were obtained:
physchem = conditions: for User log K m:w, ion / User log K m:w, neutral: bile micelle to buffer partition, Evaluated by SIVA software
Experimental: In this manuscript, PBPK absorption models were developed using SimCYP software (version 20, Sheffield, UK, Certara Company), while the primary solubility parameters were evaluated utilizing SIVA software (version 4, Sheffield, UK, Certara Company). The comprehensive process of parameter evaluation is as follows: Intrinsic solubility (So) and salt limiting solubility factor (SF) values were obtained according to the solubility of the API in different aqueous media and the Henderson–Hasselbalch equation (Equation (1)). Subsequently, the bile micelle to buffer partition coefficients (Km:w) in both ionized (Km:w, ionized) and un-ionized (Km:w, un-ionized) states were evaluated based on the solubility of the APIs in FaSSGF, FaSSIF, and FeSSIF media, employing Equation (1). (1) STot=So×Soscalart×1+BSt/CH2O×Km:w, un-ionized+Sit×1+BSt/CH2O×Km:w, ionized+Sbound,excipt where t is the time; STot is the total solubility of the drug in a given medium (aqueous or biorelevant medium); So is the intrinsic solubility of the drug; Soscalar is the scalar for So used to capture the increased solubility of the drug in a given medium; Si is the ionized aqueous solubility; [BS] is the bile salt concentration in a given biorelevant medium; CH2O is the concentration of water; Km:w, ionized/un-ionized are the bile micelle/buffer partition coefficients for ionized and un-ionized species, respectively; and Sbound, excip is the amount of drug bound to the excipient at a given excipient concentration.

[1] = Equilibrium solubility of APIs in aqueous and biorelevant media; assay type: physicochemical; conditions: 37 °C
Experimental: To evaluate the effect of pH and bile salt concentration within the physiological range on the solubility of APIs, the equilibrium solubility of APIs in various aqueous and biorelevant media was comprehensively investigated. Specifically, aqueous buffers, including pH 1.0 and pH 2.0 HCl solutions; pH 3.0 and pH 4.5 acetum; and pH 5.0, pH 6.5, and pH 8.0 phosphate buffer solutions (PBS), were prepared according to the guidelines outlined in the Chinese Pharmacopoeia. Additionally, biorelevant media such as FaSSGF, FaSSIF, and FeSSIF were prepared following the prescribed method for biorelevant power. An excess amount of solid drug powder was added to vials containing 20 mL of the corresponding medium, and tests were conducted with continuous stirring at 37 °C for 24 h. Drug concentration was detected every minute through an in situ fiber-optic UV dissolution real-time monitoring system (Pion Scientific Instruments, Billerica, MA, USA). All measurements were performed in triplicate.

[2] = Particle size distribution of the APIs (laser diffraction, dry method); assay type: physicochemical; conditions: API bulk drug
Experimental: The particle size of the API directly influences the dissolution rate of formulations and the overall bioavailability of the compound, making it a necessary parameter for establishing the PBPK absorption model. To determine the particle size distributions of the APIs employed in the formulation of rivaroxaban, ticagrelor, and PB-201, the bulk drugs used in the corresponding formulations were measured by the dry method with a Malvern Mastersizer laser diffraction size analyzer (Master 2000, Malvern Instruments Limited, Malvern, UK). Each sample was tested once.

CYP2J2 = CYP2J2 intrinsic clearance fitted in PBPK model; conditions: Fitted to in vivo metabolic fraction and SAD C-T profiles
Text: (§1) S2. PBPK model development and validation physicochemical parameters for these three model drugs, including protein binding and Blood-to-Plasma (B/P) ratio, were obtained from experimental results, while log P and pKa were estimated based on the molecular formula using Gastro Plus ADMET software (version 10.3, […]
(§2) S2.1. Rivaroxaban PBPK model development and validation
(§3) S2.1.1. Rivaroxaban PBPK model development for metabolism and elimination module […]
(§4) its systemic clearance, CLint_CYP3A4, CLint_CYP2J2 and CLHLM were fitted according to the metabolic fraction of rivaroxaban in vivo and concentration-time profiles from the SAD clinical trial in Caucasian subjects under fasted state. […]
(§5) permeability-limited kidney and liver models were employed to account for the active efflux […]
(§6) Physicochemical properties

[3] = Dissolution tests of formulations in biorelevant media (USP 2); assay type: physicochemical; conditions: formulation, 500 and 900 mL FaSSIF or FeSSIF media
Experimental: Dissolution tests employing biorelevant media have gained widespread utilization in formulation development, offering valuable insights into the behavior of APIs and their respective formulations within the GI tract. In this study, dissolution behavior was assessed using the calibrated USP 2 apparatus (Pion Scientific Instruments, Billerica, MA, USA) across various media, including FaSSGF, FaSSIF, and FeSSIF. The fasted gastric environment was simulated with 300 mL of FaSSGF medium, while FaSSIF and FeSSIF media were used to mimic the intestinal conditions under fasted and fed states, with volumes of 500 and 900 mL, respectively. Dissolution experiments were conducted at a paddle speed of 75 rpm, with the medium temperature maintained at 37 ± 0.5 °C. Sample concentrations were monitored at 1 min intervals via an in situ fiber-optic UV dissolution real-time monitoring system. All experiments were conducted in triplicate.

[4] = set-up: method as in earlier work; conditions: optimized rivaroxaban model input, cited from earlier work
[5] = in vivo, cited from earlier work
ABCB1 (P-gp/MDR1) = assay: P-gp efflux clearance in kidney and liver fitted in PBPK model; conditions: human, permeability-limited liver model, Canalicular, read-out: CLint,T
Text: as §1, §2, §3, §4, §5, §6

[6] = cited from earlier work
[7] = Passive diffusion clearance and unbound fractions of permeability-limited kidney and liver models; conditions: Liver, Fitted
Text: as §1, §2, §3, §4, §5, §6

[8] = Apparent permeability assay in biorelevant media (PAMPA); assay type: in vitro ADME; conditions: for PAMPA: optimized ticagrelor model input; for Papp: PAMPA, parallel artificial membrane
Experimental: In light of observed distinctions in the apparent permeability of drugs in biorelevant media compared to standard media, the apparent permeability of ticagrelor in FaSSIF and FeSSIF media was measured using the published method with the parallel artificial membrane. The apparent permeability of rivaroxaban and PB-201 (Drug-A) in biorelevant media was referenced from the published results.

[9] = ticagrelor; supplement ref 17; cited from earlier work
[10] = HCl solution, simulated gastric fluid, thermodynamic from solid, pH 1.0 HCl
[11] = HCl solution, simulated gastric fluid, thermodynamic from solid, pH 2.0 HCl
[12] = aqueous buffer, thermodynamic from solid, pH 3.0 Acetic acid buffer
[13] = aqueous buffer, thermodynamic from solid, pH 4.5 Acetic acid buffer
[14] = phosphate buffer solution (PBS), aqueous buffer, thermodynamic from solid, pH 5.0 PBS
[15] = phosphate buffer solution (PBS), pH 6.5 PBS
[16] = phosphate buffer solution (PBS), pH 8.0 PBS
[17] = thermodynamic from solid, pH 5.0 FeSSIF
[18] = thermodynamic from solid, pH 6.5 FaSSIF

## O=C(NC[C@H]1CN(c2ccc(N3CCOCC3=O)cc2)C(=O)O1)c1ccc(Cl)s1 [Rivaroxaban]
physchem; aqueous buffer
  solubility: 5 µg/mL (≈ 11.5 µM)
physchem
  User log K m:w, ion: 3.894
  User log K m:w, neutral: 3.330
[1]; [10]
  solubility thermodynamic at 24 h: 6.84 µg/mL (≈ 15.7 µM)
[1]; [11]
  solubility thermodynamic at 24 h: 8.18 µg/mL (≈ 18.8 µM)
[1]; [12]
  solubility thermodynamic at 24 h: 10.6 µg/mL (≈ 24.3 µM)
[1]; [13]
  solubility thermodynamic at 24 h: 6.55 µg/mL (≈ 15 µM)
[1]; pH 1.6 FaSSGF
  solubility thermodynamic at 24 h: 7.5 µg/mL (≈ 17.2 µM)
[1]; [14]
  solubility thermodynamic at 24 h: 4.85 µg/mL (≈ 11.1 µM)
[1]; [15]
  solubility thermodynamic at 24 h: 5.84 µg/mL (≈ 13.4 µM)
[1]; [16]
  solubility thermodynamic at 24 h: 5.87 µg/mL (≈ 13.5 µM)
[1]; [17]
  solubility thermodynamic at 24 h: 10.6 µg/mL (≈ 24.3 µM)
[1]; [18]
  solubility thermodynamic at 24 h: 6.17 µg/mL (≈ 14.2 µM)
[2]
  D (0.1): 3.809 μm
  D (0.5): 7.955 μm
  D (0.9): 15.532 μm
CYP2J2
  Intrinsic clearance of CYP 2J2: 2.500 µL/min/pmol
[3]
  dissolution percentages: below 80%
[4]; Fasted (FaSSIF)
  PAMPA: 52.6 10E-06 cm/s
[4]; Fed (FeSSIF)
  PAMPA: 40.80 10E-06 cm/s
[5]; supplement ref 1
  metabolic fraction of CYP2J2 to the systemic clearance: about 14%
  metabolic fraction of CYP3A4 to the systemic clearance: approximately 18%
  parent drug directly excreted by the kidney: about 36%
  parent drug directly excreted by the liver: ~7%
[5]; supplement ref 2
  contribution of liver hydrolases to systemic clearance: about 14%
ABCB1 (P-gp/MDR1)
  hepatocyte CLint: 0.03 µL/min/1e6 cells
[6]; rivaroxaban, supplement ref 2
  Fraction unbound in plasma: 0.065
[6]; rivaroxaban, supplement ref 7
  Blood-to-plasma partition ratio: 0.714
[7]
  fuIW: 0.193

## CCCSc1nc(N[C@@H]2C[C@H]2c2ccc(F)c(F)c2)c2nnn([C@@H]3C[C@H](OCCO)[C@@H](O)[C@H]3O)c2n1 [Ticagrelor]
[8]; Fasted (FaSSIF)
  PAMPA: 90.2 10E-06 cm/s
[8]; Fed (FeSSIF)
  PAMPA: 14.30 10E-06 cm/s
[8]; FaSSIF
  Papp: 90.2 ×10⁻⁶ cm/s
[8]; FeSSIF
  Papp: 14.3 ×10⁻⁶ cm/s
physchem
  User log K m:w, ion: 8.226
  User log K m:w, neutral: 5.941
[1]; [10]
  solubility thermodynamic at 24 h: 18 µg/mL (≈ 34.4 µM)
[1]; [11]
  solubility thermodynamic at 24 h: 8.04 µg/mL (≈ 15.4 µM)
[1]; [12]
  solubility thermodynamic at 24 h: 11.6 µg/mL (≈ 22.2 µM)
[1]; [13]
  solubility thermodynamic at 24 h: 7.47 µg/mL (≈ 14.3 µM)
[1]; pH 1.6 FaSSGF
  solubility thermodynamic at 24 h: 14.2 µg/mL (≈ 27.2 µM)
[1]; [14]
  solubility thermodynamic at 24 h: 6.35 µg/mL (≈ 12.2 µM)
[1]; [15]
  solubility thermodynamic at 24 h: 5.97 µg/mL (≈ 11.4 µM)
[1]; [16]
  solubility thermodynamic at 24 h: 5.52 µg/mL (≈ 10.6 µM)
[1]; [17]
  solubility thermodynamic at 24 h: 4050 µg/mL (≈ 7750 µM)
[1]; [18]
  solubility thermodynamic at 24 h: 306 µg/mL (≈ 586 µM)
[2]
  D (0.1): 3.045 μm
  D (0.5): 6.926 μm
  D (0.9): 13.605 μm
[9]
  CLR typical renal clearance: 0.00584 L/h
[6]; ticagrelor, supplement ref 18
  Blood-to-plasma partition ratio: 0.592
  Fraction unbound in plasma: 0.006
